Assay results: PMC12363950 (bioRxiv, 2025)

Target: CRAF (Homo sapiens, UniProt P04049, Y340D/Y341D)

With CCCS(=O)(=O)Nc1ccc(F)c(C(=O)c2c[nH]c3ncc(Cl)cc23)c1F [PLX4720] the “X-ray crystal structure, 2.91 Å” value was “The structure reveals clear electron density for both PLX4720 and CH5126766”.
